# In PMC7525093, “Bis-Quinolinium Cyclophane Blockers of SK Potassium Channels Are Antagonists of M3 Muscarinic Acetylcholine Receptors” (Frontiers in Pharmacology, 2020):
# “And” between values parts separate entries of the source, which are not always exact repeats. Identical values can stand only once.
# Legend:
# [1] = test system: rat primary tracheal smooth muscle cells; assay: Cytosolic calcium imaging in rat tracheal smooth muscle cells; type: cell-based
# Experimental: Rat trachea were isolated as described above, except that a guillotine was used for sacrifice instead of cervical dislocation. The dorsal muscle layer was removed from the hyaline cartilage rings and minced into ~1-mm fragments in Ca^2+-free HEPES-buffered Krebs solution (140 mM NaCl, 4.7 mM KCl, 1.13 mM MgCl2, 10 mM HEPES, 10 mM glucose, pH 7.3). The tracheal smooth muscle (TSM) fragments were digested with 2.5 U/ml papain (MP Biomedicals) with 1 mg/ml BSA fraction V and 1 mg/ml dithiothreitol at 37°C on a rocking platform (250 rotations/min) for 20 min. After washing once with the Ca^2+-free Krebs solution the TSM fragments were digested with 12.5 U/ml of type VII collagenase (Sigma Chemical) for 10 min on a rocking platform at 37°C, washed and centrifuged (750 G for two min.) three times in Ca^2+-free Krebs-BSA solution and gently triturated up to 5 min to disburse single tracheal myocytes. TSM cells were stored on ice in Ca^2+-free Krebs-BSA solution and used the same day.
# TSM cells were placed on a coverslip in a 1 ml perfusion chamber on an inverted microscope and incubated with 20 μM Cal-520 AM dye (AAT Bioquest, Sunnyvale, California, USA) in 0.2% Pluronic F-127 and 1 mM probenecid in HBSS at room temperature for 30 min. The chamber was fitted with a top adaptor and coverslip (Warner Instruments, RC37WC) to establish a closed perfusion chamber. […]
# [2] = test system: human primary bronchial smooth muscle cells stably transfected with the human M3 muscarinic receptor; assay: Cytosolic calcium imaging in human bronchial smooth muscle cells; type: cell-based
# Experimental: TSM cells were placed on a coverslip in a 1 ml perfusion chamber on an inverted microscope and incubated with 20 μM Cal-520 AM dye (AAT Bioquest, Sunnyvale, California, USA) in 0.2% Pluronic F-127 and 1 mM probenecid in HBSS at room temperature for 30 min. The chamber was fitted with a top adaptor and coverslip (Warner Instruments, RC37WC) to establish a closed perfusion chamber. The cells were imaged at 20 second intervals using 488 nm excitation on a Nikon swept-field confocal microscope using slit-scan mode, 2×2 Binning, and 100 millisecond frames.
# Due to the loss of functional muscarinic receptors in primary bronchial smooth muscle cells in culture, calcium imaging was performed in human primary bronchial smooth muscle cells (ScienCell, passage 3) stably transfected with the human M3 muscarinic receptor. Human M3 receptor transfected clones were stably selected with G418, and individual clones were expanded to a 10 cm dish and frozen into aliquots, and analyzed after a maximum of two additional passages.
# [3] = biological target: T1, M1 muscarinic receptor (Homo sapiens, UniProt P11229); assay: R-CEPIAer ER calcium assay, CHO cells transiently transfected with M1 receptor; type: cell-based
# T1 construct: expressed in transfected cells; host or cells: CHO cells, transiently co-transfected with pCMV R-CEPIAer
# T1 sequence (P11229 1-460): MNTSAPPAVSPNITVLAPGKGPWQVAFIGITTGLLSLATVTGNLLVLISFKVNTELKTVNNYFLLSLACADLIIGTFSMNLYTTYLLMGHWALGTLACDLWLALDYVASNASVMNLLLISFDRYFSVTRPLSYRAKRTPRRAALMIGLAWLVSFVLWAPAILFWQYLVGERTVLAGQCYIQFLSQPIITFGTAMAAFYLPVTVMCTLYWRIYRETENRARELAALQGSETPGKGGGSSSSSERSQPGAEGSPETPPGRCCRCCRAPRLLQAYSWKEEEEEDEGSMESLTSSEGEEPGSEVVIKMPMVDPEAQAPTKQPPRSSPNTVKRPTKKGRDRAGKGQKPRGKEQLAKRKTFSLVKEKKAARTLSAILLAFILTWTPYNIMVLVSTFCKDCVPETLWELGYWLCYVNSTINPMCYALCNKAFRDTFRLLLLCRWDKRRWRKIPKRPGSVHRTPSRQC
# Experimental: [Worded in the source for another target; used here, by the source, with some conditions changed.] (§1) The binding of antagonists to Gq-coupled receptors was determined by measuring IP3-mediated calcium depletion from the endoplasmic reticulum (ER). This was accomplished using CHO-K1 cells stably transfected with human M3 muscarinic acetylcholine receptor (CEM3000000, cDNA Resource Center, Bloomsburg University) and R-CEPIAer, a low affinity ER-targeted calcium indicator fluorescent protein ([Suzuki et al., 2014]). R-CEPIAer reporting of ER calcium concentration was assessed using 564 nm excitation light (>590 long-pass emission) at 20 second intervals on a Nikon swept-field confocal microscope using slit-scan mode, 2x2 Binning, and 100 millisecond frames. F/Fmax was fluorescence intensity normalized to maximal fluorescence intensity during the experiment. The response of cells to Gq-coupled receptor agonist were measured as the change in F/Fmax (ΔF/Fmax) from preagonist value to fluorescence minimum during agonist application (that occurs by IP3-mediated ER calcium depletion). […] Perfusion of each agonist application was for 2 min, while the antagonist overlapped and preceded the second agonist application by 3 min. […] IC50 was calculated by assaying fractional inhibition using a dose-response of antagonist concentrations (i.e. Figure 1D ). […]
# [4] = biological target: T2, histamine receptor H1 (Homo sapiens, UniProt P35367); assay: R-CEPIAer ER calcium assay, CHO cells transfected with H1 receptor; type: cell-based; conditions: data not shown
# T2 construct: expressed in transfected cells; host or cells: CHO cells, transiently co-transfected with pCMV R-CEPIAer
# T2 sequence (P35367 whole entry): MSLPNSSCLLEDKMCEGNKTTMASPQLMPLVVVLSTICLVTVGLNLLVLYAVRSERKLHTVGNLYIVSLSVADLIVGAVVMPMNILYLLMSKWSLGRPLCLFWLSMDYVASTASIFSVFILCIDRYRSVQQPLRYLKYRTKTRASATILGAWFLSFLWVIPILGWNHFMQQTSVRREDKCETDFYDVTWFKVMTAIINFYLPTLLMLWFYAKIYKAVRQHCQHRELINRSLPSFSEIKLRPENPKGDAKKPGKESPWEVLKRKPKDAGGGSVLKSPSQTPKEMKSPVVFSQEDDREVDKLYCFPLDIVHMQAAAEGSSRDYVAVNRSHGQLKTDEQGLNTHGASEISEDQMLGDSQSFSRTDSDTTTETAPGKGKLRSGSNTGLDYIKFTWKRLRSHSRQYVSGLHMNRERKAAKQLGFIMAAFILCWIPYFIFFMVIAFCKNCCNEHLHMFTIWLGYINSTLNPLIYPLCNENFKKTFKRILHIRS
# Experimental: as §1
# [5] = test system: mouse lung lower airways; assay: Bronchial diameter changes in mouse lung slices; conditions: 3.5 μM UCL 1684; 0.5 μM carbachol
# Experimental: Experiments using mouse lung slices were conducted as described ([Sanderson, 2011]). Eight-week-old Balb/C mice were sacrificed by deep isoflurane anesthesia followed by cervical dislocation. Trachea were isolated, cannulated with a blunt needle and the lungs filled with 3 ml of Hanks balanced salt solution (HBSS) with 2% low-temperature melt agarose at 37°C followed by 0.5 ml of air to clear the airways of agarose. The mouse thoracic cavity was exposed and the lungs chilled with an ice bath. After gelling of the agarose, the lungs were removed and 200 μm sections made with a Leica Vibratome VT1200. The sections were placed in DMEM in a tissue-culture incubator at 37°C for up to 8 h. Experiments measuring diameter changes were conducted using an inverted 10X phase contrast objective and oblique lighting in a constant perfusion (0.5 ml/min) bath of HBSS at 22°C solution.
smiles,measurement,setting,value
"c1cc2cc(c1)C[n+]1ccc(c3ccccc31)NCc1ccc(cc1)CNc1cc[n+](c3ccccc13)C2 [UCL 1684, 6,12,19,20,25,26-Hexahydro-5,27:13,18:21,24-trietheno-11,7-metheno-7H-dibenzo [b,n] [1,5,12,16]tetraazacyclotricosine-5,13-diium dibromide]",Calcium response (integral) to second carbachol relative to first,"[1]; 3.5 μM UCL 1684, 0.5 μM carbachol, rat TSMC",0.42 ± 0.04
same,activity at 3.5 µM,"[1]; Rattus norvegicus, read-out: CCH-evoked cytosolic calcium, % of control",42%
same,Calcium response (integral) to second carbachol relative to first,"[2]; 3.5 μM UCL 1684, 0.5 μM carbachol, human BSMC",0.38 ± 0.10
same,activity at 3.5 µM,"[2]; Homo sapiens, BSMC, read-out: CCH-evoked cytosolic calcium, % of control",38%
same,IC50,[3],120 nM
same,"Hill slope of inhibition curve, M1 receptor",[3]; 0.5 μM carbachol,0.67 ± 0.5
same,Fractional inhibition of H1 receptor response,[4],-0.008 ± 0.04
same,Bronchial diameter during second carbachol challenge normalized to first challenge,[5],178.3% and 178.3 ± 19.0%
